In patent publication US10668051B2, “Modulators of calcium release-activated calcium channel” (Rhizen Pharmaceuticals SA, priority 2009, dated 2020):
Structures can show the parent of a compound that is named as a salt.

These compounds were tested against CRAC channels (Homo sapiens (Human), UniProt Q96D31) (assay: In-vitro CRAC channel inhibition assay in Jurkat cells (thapsigargin-induced calcium influx)).
Format: cell-based
Method: 1A. In-Vitro CRAC Channel Inhibition Assay in Jurkat Cells
Plate is incubated at 37° C./5% CO2 for 30 min followed by further 15 min incubation at room temperature. Test compounds (DMSO stocks diluted in Ca^2+ and Mg^2+ free Hanks buffer) at desired concentrations were added to the wells and incubated for 15 min. Thapsigargin (1 μM final concentration) was added to the wells and incubated for 15 min to inhibit the Sarco-endoplasmic reticulum Ca^2+ ATPase pump thereby depleting endoplasmic calcium and raising cytosolic calcium concentrations. Store-operated calcium entry was initiated by adding extracellular Ca^2+ to a final concentration of 1.8 mM. Fluorescence was monitored over 5 min on a plate reader (BMG Labtech., Germany) with excitation at 485 nm and; an emission wavelength at 520 nm. Data were analyzed using GraphPad Prism. IC50 for each compound was determined based on the percent inhibition of thapsigargin-induced calcium influx into cells.

Sequence of CRAC channels (Q96D31 whole entry): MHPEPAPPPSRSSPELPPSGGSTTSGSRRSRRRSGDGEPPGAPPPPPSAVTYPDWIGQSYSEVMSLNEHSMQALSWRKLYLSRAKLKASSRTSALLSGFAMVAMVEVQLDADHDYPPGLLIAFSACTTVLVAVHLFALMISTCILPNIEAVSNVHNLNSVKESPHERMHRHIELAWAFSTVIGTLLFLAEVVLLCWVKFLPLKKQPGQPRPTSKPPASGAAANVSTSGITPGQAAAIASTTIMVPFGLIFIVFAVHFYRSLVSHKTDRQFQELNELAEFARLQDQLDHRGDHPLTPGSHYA

Compound | inhibition at 1 µM [%] | % inhibition (1 uM) [%]
Cc1nc(C)c(C(=O)Nc2ccc(-n3nc(C4CC4)cc3C3CC3)nc2)s1 [Example 40, N-[6-(3,5-dicyclopropyl-1H-pyrazol-1-yl)pyridin-3-yl]-2,4-dimethylthiazole-5-carboxamide] | 12.6 | 
Cc1ncncc1NC(=O)Nc1ccc(-n2nc(C(F)(F)F)cc2C2CC2)cc1 [Example 77, 1-{4-[5-cyclopropyl-3-(trifluoromethyl)-1H-pyrazol-1-yl]phenyl}-3-(4-methylpyrimidin-5-yl)urea] | 44 | 
O=C(Nc1ccc(-n2nc(C(F)(F)F)cc2C2CC2)c(F)c1)c1cccc(F)c1F [Example 87, N-{4-[5-cyclopropyl-3-(trifluoromethyl)-1H-pyrazol-1-yl]-3-fluorophenyl}-2,3-difluorobenzamide] | 91.6 | 
O=C(Nc1ccc(-n2nc(C3CC3)cc2C2CC2)c(F)c1)c1c(Cl)cncc1Cl [Example 127, 3,5-dichloro-N-[4-(3,5-dicyclopropyl-1H-pyrazol-1-yl)-3-fluorophenyl]isonicotinamide] | 66.3 | 
O=C(Nc1cccc(F)c1F)c1ccc(-n2nc(C(F)(F)F)cc2C2CC2)c(F)c1 [Example 99, 4-[5-cyclopropyl-3-(trifluoromethyl)-1H-pyrazol-1-yl]-N-(2,3-difluorophenyl)-3-fluorobenzamide] | 56.2 | 
O=C(Cc1ccncc1)Nc1ccc(-n2nc(C(F)(F)F)cc2C2CC2)cc1 [Example 73, N-{4-[5-cyclopropyl-3-(trifluoromethyl)-1H-pyrazol-1-yl]phenyl}-2-(pyridin-4-yl)acetamide hydrochloride] | 68 | 
Cc1ncsc1C(=O)Nc1ccc(-n2nc(C(F)(F)F)c(Cl)c2C2CC2)cc1 [Example 80, N-{4-[4-chloro-5-cyclopropyl-3-(trifluoromethyl)-1H-pyrazol-1-yl]phenyl}-4-methylthiazole-5-carboxamide] | 81.6 | 
Cc1ncsc1C(=O)Nc1ccc(-n2nc(C(F)(F)F)cc2CF)cc1 [Example 125, N-{4-[5-(fluoromethyl)-3-(trifluoromethyl)-1H-pyrazol-1-yl]phenyl}-4-methylthiazole-5-carboxamide] | 100 | 
O=C(Nc1ccc(-n2nc(C(F)(F)F)cc2C2CC2)nc1)c1c(Cl)cncc1Cl [Example 115, 3,5-dichloro-N-{6-[5-cyclopropyl-3-(trifluoromethyl)-1H-pyrazol-1-yl]pyridin-3-yl}isonicotmamide] | 51.3 | 
Cc1ncncc1NC(=O)Nc1ccc(-n2nc(C(F)(F)F)cc2C2CC2)c(F)c1 [Example 97, 1-{4-[5-cyclopropyl-3-(trifluoromethyl)-1H-pyrazol-1-yl]-3-fluorophenyl}-3-(4-methylpyrimidin-5-yl)urea] | 97 | 
Cc1ncncc1C(=O)N(C)c1ccc(-n2nc(C(F)(F)F)cc2C2CC2)c(F)c1 [Example 94, N-{4-[5-cyclopropyl-3-(trifluoromethyl)-1H-pyrazol-1-yl]-3-fluorophenyl}-N,4-dimethylpyrimidine-5-carboxamide] | 45.4 | 
O=C(Nc1ccc(-n2nc(C3CC3)cc2C2CC2)nc1)c1cccnc1 [Example 46, N-[6-(3,5-dicyclopropyl-1H-pyrazol-1-yl)pyridin-3-yl]nicotinamide dihydrochloride] | 0.26 | 
Cc1cccnc1C(=O)Nc1ccc(-n2nc(C(F)(F)F)cc2C2CC2)nc1 [Example 110, N-{6-[5-cyclopropyl-3-(trifluoromethyl)-1H-pyrazol-1-yl]pyridin-3-yl}-3-methylpicolinamide] | 78.4 | 
CS(=O)(=O)c1ccc(C(=O)Nc2ccc(-n3nc(C4CC4)cc3C3CC3)cc2)cc1 [Example 11, N-[4-(3,5-dicyclopropyl-1H-pyrazol-1-yl)phenyl]-4-(methylsulfonyl)benzamide] | 71.9 | 
O=C(Nc1ccc(-n2nc(C(F)(F)F)cc2C2CC2)c(F)c1)C1(c2ccccc2)CCC1 [Example 131, N-{4-[5-cyclopropyl-3-(trifluoromethyl)-1H-pyrazol-1-yl]-3-fluorophenyl}-1-phenylcyclobutanecarboxamide] | 0 | 
N-{4-[3-cyclopropyl-5-(difluoromethyl)-1H-pyrazol-1-yl]-3-fluorophenyl}-2,6-difluorobenzamide and N-{4-[5-cyclopropyl-3-(difluoromethyl)-1H-pyrazol-1-yl]-3-fluorophenyl}-2,6-difluorobenzamide [Example 135] |  | 100
O=C(Nc1ccc(-n2nc(C3CC3)cc2C2CC2)nc1)c1ccncc1 [Example 47, N-[6-(3,5-dicyclopropyl-1H-pyrazol-1-yl)pyridin-3-yl]isonicotinamide dihydrochloride] | 10.4 | 
O=C(Nc1ccc(-n2nc(C(F)(F)F)cc2C2CC2)nc1)c1ccccn1 [Example 109, N-{6-[5-cyclopropyl-3-(trifluoromethyl)-1H-pyrazol-1-yl]pyridin-3-yl}picolinamide] | 6.18 | 
Cc1ncncc1C(=O)Nc1cnc(-n2nc(C(F)(F)F)cc2C2CC2)nc1 [Example 133, N-{2-[5-cyclopropyl-3-(trifluoromethyl)-1H-pyrazol-1-yl]pyrimidin-5-yl}-4-methylpyrimidine-5-carboxamide] | 5.62 | 
O=C(Cc1ccccn1)Nc1ccc(-n2nc(C(F)(F)F)c(Cl)c2C2CC2)cc1 [Example 81, N-{4-[4-chloro-5-cyclopropyl-3-(trifluoromethyl)-1H-pyrazol-1-yl]phenyl}-2-(pyridin-2-yl)acetamide hydrochloride] | 56.1 | 
O=C(Nc1ccc(-n2nc(C(F)(F)F)cc2C2CC2)nc1)c1cccc(F)c1F [Example 107, N-{6-[5-cyclopropyl-3-(trifluoromethyl)-1H-pyrazol-1-yl]pyridin-3-yl}-2,3-difluorobenzamide] | 97 | 
Cc1noc(C)c1C(=O)Nc1ccc(-n2nc(C(F)(F)F)cc2C2CC2)cc1 [Example 57, N-{4-[5-cyclopropyl-3-(trifluoromethyl)-1H-pyrazol-1-yl]phenyl}-3,5-dimethylisoxazole-4-carboxamide] | 83.8 | 
Cl.O=C(Nc1ccc(-n2nc(C3CC3)cc2C2CC2)c(F)c1)c1ccncc1 [Example 35, N-[4-(3,5-dicyclopropyl-1H-pyrazol-1-yl)-3-fluorophenyl]isonicotinamde hydrochloride] |  | 100
Cc1nnsc1C(=O)Nc1ccc(-n2nc(C(F)(F)F)c(Cl)c2C2CC2)c(F)c1 [Example 95, N-{4-[4-chloro-5-cyclopropyl-3-(trifluoromethyl)-1H-pyrazol-1-yl]-3-fluorophenyl}-4-methyl-1,2,3-thiadiazole-5-carboxamide] | 100 | 
Cc1ccccc1C(=O)Nc1ccc(-n2nc(C3CC3)cc2C2CC2)c(F)c1 [Example 31, N-[4-(3,5-dicyclopropyl-1H-pyrazol-1-yl)-3-fluorophenyl]-2-methyl benzamide] | 77 | 
Cc1ncsc1CNc1ccc(-n2nc(C(F)(F)F)cc2C2CC2)cc1 [Example 74, 4-[5-cyclopropyl-3-(trifluoromethyl)-1H-pyrazol-1-yl]-N-[(4-methylthiazol-5-yl)methyl]aniline] | 100 | 
O=C(Cc1ccccn1)Nc1ccc(-n2nc(C(F)(F)F)cc2C2CC2)nc1 [Example 117, N-{6-[5-cyclopropyl-3-(trifluoromethyl)-1H-pyrazol-1-yl]pyridin-3-yl}-2-(pyridin-2-yl)acetamide hydrochloride] | 0 | 
